Assays:
[1] = system: NMDA receptor; conditions: previous report; cited from earlier work
[2] = system: MMP-12; assay: MMP-12 expression by RT-PCR in spinal cord tissue after spinal cord injury; assay type: in vivo; conditions: mouse treated with fluoxetine (200 mg/kg i.p. once a day) after spinal cord injury vs saline
Procedure: (§1) Adult male C57BL/6 mice (20˜30 g) were anaesthetized with chloral hydrate (500 mg/kg) and T8˜T10 were exposed. The exposed T9 was subjected to contusion injury (by dropping a weight at the impact strength of 40 kd) using PSI (Precision Systems and Instrumentation) impactor. After confirming that a certain damage was given within the error range based on the data of injury level, the incision sites were sealed. After disinfecting the incision sites, the mice were raised in cages (2 mice/cage). Urination was induced by massaging the bladder three times a day. […] Louis, Mo.) dissolved in saline was immediately administered into injured mice via intraperitoneal injection (200 mg/kg). Saline was administered for the control. The administration was performed once a day and continued for 2 weeks. […] Spinal nerve was cut, followed by embedding in OCT compound, which was sectioned by using a cryostat. The spinal cord tissue for the extraction of RNA and protein proceeded to perfusion with PBS. Then, the spinal cord tissue was cut 0.8 cm from the injured area, which was stored in liquid nitrogen at −80° C. until use. RNA was extracted by using TRIZOL Reagent (Invitrogen) according to manufacturer's manual. Total reaction mixture (20 μl) containing 1 μg of RNA was prepared, followed by RT-PCR using MMLV reverse transcriptase (Invitrogen). […]

[3] = system: ZO-1; assay: ZO-1 (tight junction protein) amount by western blot after spinal cord injury; assay type: in vivo, mouse; conditions: vs saline
Procedure: Adult male C57BL/6 mice (20˜30 g) were anaesthetized with chloral hydrate (500 mg/kg) and T8˜T10 were exposed. The exposed T9 was subjected to contusion injury (by dropping a weight at the impact strength of 40 kd) using PSI (Precision Systems and Instrumentation) impactor. After confirming that a certain damage was given within the error range based on the data of injury level, the incision sites were sealed. After disinfecting the incision sites, the mice were raised in cages (2 mice/cage). Urination was induced by massaging the bladder three times a day. […] Louis, Mo.) dissolved in saline was immediately administered into injured mice via intraperitoneal injection (200 mg/kg). Saline was administered for the control. The administration was performed once a day and continued for 2 weeks. […] The protein was transferred onto nitrocellulose membrane, followed by western blot according to the protocol described in each antibody data sheet.

[4] = system: ZO-1; assay: ZO-1 immunohistochemical staining of spinal cord sections after spinal cord injury; assay type: in vivo, mouse; conditions: tissue sections after spinal cord injury, vs saline
Procedure: Adult male C57BL/6 mice (20˜30 g) were anaesthetized with chloral hydrate (500 mg/kg) and T8˜T10 were exposed. The exposed T9 was subjected to contusion injury (by dropping a weight at the impact strength of 40 kd) using PSI (Precision Systems and Instrumentation) impactor. After confirming that a certain damage was given within the error range based on the data of injury level, the incision sites were sealed. After disinfecting the incision sites, the mice were raised in cages (2 mice/cage). Urination was induced by massaging the bladder three times a day. […] Louis, Mo.) dissolved in saline was immediately administered into injured mice via intraperitoneal injection (200 mg/kg). Saline was administered for the control. The administration was performed once a day and continued for 2 weeks. […] Spinal nerve was cut, followed by embedding in OCT compound, which was sectioned by using a cryostat. […] 10 μm tissue sections were reacted under the condition proposed in each primary antibody manual, followed by color development by using secondary antibodies. For immunofluorescence staining, secondary antibodies of Jackson were used. For DAB color development, Vectastatin kit (Vector) was used.

[5] = system: neutrophils; assay: Neutrophil infiltration into spinal cord by flow cytometry; assay type: in vivo, mouse; conditions: flow cytometry (high CD45 and Gr-1), 1 and 5 days after spinal cord injury, vs saline
Procedure: (§2) Adult male C57BL/6 mice (20˜30 g) were anaesthetized with chloral hydrate (500 mg/kg) and T8˜T10 were exposed. The exposed T9 was subjected to contusion injury (by dropping a weight at the impact strength of 40 kd) using PSI (Precision Systems and Instrumentation) impactor. After confirming that a certain damage was given within the error range based on the data of injury level, the incision sites were sealed. After disinfecting the incision sites, the mice were raised in cages (2 mice/cage). Urination was induced by massaging the bladder three times a day. […] Louis, Mo.) dissolved in saline was immediately administered into injured mice via intraperitoneal injection (200 mg/kg). Saline was administered for the control. The administration was performed once a day and continued for 2 weeks. The spinal cord tissue was extracted 1 and 5 days after spinal cord injury, which was added into PBS. The spinal cord tissue in PBS was mechanically disrupted with a dounce homogenizer, followed by centrifugation at 1,100 rpm for 10 minutes. The obtained pellet was resuspended in FBS containing buffer, which was centrifuged at 3,000 rpm for 7 minutes. […] After washing with FBS containing buffer, neutrophils and macrophages infiltrated into spinal cord 1 and 5 days after spinal cord injury were measured by using Becton Dickinson LSR Benchtop Flow Cytometer (BD Biosciences). […]

[6] = system: MMP-9; assay: MMP-9 activation by gelatin zymography of spinal cord tissue after spinal cord injury; assay type: in vivo, mouse; conditions: spinal cord tissue 1 day (peak time) after spinal cord injury, vs saline
Procedure: (§3) Adult male C57BL/6 mice (20˜30 g) were anaesthetized with chloral hydrate (500 mg/kg) and T8˜T10 were exposed. The exposed T9 was subjected to contusion injury (by dropping a weight at the impact strength of 40 kd) using PSI (Precision Systems and Instrumentation) impactor. […] Louis, Mo.) dissolved in saline was immediately administered into injured mice via intraperitoneal injection (200 mg/kg). Saline was administered for the control. The administration was performed once a day and continued for 2 weeks. […] Then, the gel was loaded in renaturing buffer (2.5% Triton X-100), followed by incubation at room temperature for 30 minutes. The gel was loaded in developing buffer (50 mM Tris-HCl, pH 8.5, 0.2 M NaCl, 5 mM CaCl2, 0.02% Brii35), which stood at 37° C. for 24 hours. […] At this time, the clear band on the zymogram gel indicated gelatinase activity.

[7] = system: MMP-2; assay: MMP-2 expression by RT-PCR in spinal cord tissue after spinal cord injury; assay type: in vivo; conditions: mouse treated with fluoxetine (200 mg/kg i.p. once a day) after spinal cord injury vs saline
Procedure: as §1

[8] = system: spinal cord injury mouse; assay: Animal behavioral test (BBB test), recovery of exercise function after spinal cord injury; assay type: in vivo
Procedure: Adult male C57BL/6 mice (20˜30 g) were anaesthetized with chloral hydrate (500 mg/kg) and T8˜T10 were exposed. The exposed T9 was subjected to contusion injury (by dropping a weight at the impact strength of 40 kd) using PSI (Precision Systems and Instrumentation) impactor. After confirming that a certain damage was given within the error range based on the data of injury level, the incision sites were sealed. After disinfecting the incision sites, the mice were raised in cages (2 mice/cage). Urination was induced by massaging the bladder three times a day. […] Louis, Mo.) dissolved in saline was immediately administered into injured mice via intraperitoneal injection (200 mg/kg). Saline was administered for the control. The administration was performed once a day and continued for 2 weeks. BBB test is the method to evaluate the recovery of various nerve fascicles controlling exercise function in combination, in which scores are recorded from 0 to 21. […] A normal mouse got 21 scores for that. So, the exercise function is regarded to be improved as the score got higher. […] The mice were let go freely in the box so as for the mice to be adapted to the experimental environment. […] The average of BBB test scores obtained from those five trained experimenters was considered as the final BBB score for the mouse. To eliminate personal prejudice on the test animal, the experimenters were not given any information on the mice. They only observed the mice 4 minutes every time to give scores.

[9] = system: MMP-2; assay: MMP-2 activation by gelatin zymography of spinal cord tissue after spinal cord injury; assay type: in vivo, mouse; conditions: spinal cord tissue 1 day (peak time) after spinal cord injury, vs saline
Procedure: as §3

[10] = maximal electroshock convulsion test in mouse; Leander 1992; cited from earlier work
[11] = system: CCL-4; assay: CCL-4 chemoattractant expression by RT-PCR after spinal cord injury; assay type: in vivo, mouse; conditions: 1~5 days after spinal cord injury
Procedure: (§4) Adult male C57BL/6 mice (20˜30 g) were anaesthetized with chloral hydrate (500 mg/kg) and T8˜T10 were exposed. The exposed T9 was subjected to contusion injury (by dropping a weight at the impact strength of 40 kd) using PSI (Precision Systems and Instrumentation) impactor. After confirming that a certain damage was given within the error range based on the data of injury level, the incision sites were sealed. After disinfecting the incision sites, the mice were raised in cages (2 mice/cage). Urination was induced by massaging the bladder three times a day. […] Louis, Mo.) dissolved in saline was immediately administered into injured mice via intraperitoneal injection (200 mg/kg). Saline was administered for the control. The administration was performed once a day and continued for 2 weeks. RNA was extracted by using TRIZOL Reagent (Invitrogen) according to manufacturer's manual. Total reaction mixture (20 μl) containing 1 μg of RNA was prepared, followed by RT-PCR using MMLV reverse transcriptase (Invitrogen).

[12] = system: CCL-3; assay: CCL-3 chemoattractant expression by RT-PCR after spinal cord injury; assay type: in vivo, mouse; conditions: 1~5 days after spinal cord injury
Procedure: as §4

[13] = system: MMP-9; assay: MMP-9 expression by RT-PCR in spinal cord tissue after spinal cord injury; assay type: in vivo; conditions: mouse treated with fluoxetine (200 mg/kg i.p. once a day) after spinal cord injury vs saline
Procedure: as §1

[14] = system: macrophages; assay: Macrophage infiltration into spinal cord by flow cytometry; assay type: in vivo, mouse; conditions: flow cytometry (high CD45 and CD11b), 1 and 5 days after spinal cord injury, vs saline
Procedure: as §2

| SMILES | neurotoxic effect of Aβ [1] | expression of MMP-12 [2] | amount of ZO-1 [3] | ZO-1 (immunohistochemical staining) [4] | number of neutrophils in spinal cord tissues [5] | MMP-9 activity (gelatinase activity) [6] | expression of MMP-2 [7] | crossing frequency of forelegs and hind legs during walking ([8]; 672 h) | BBB points, course ([8]; from 1 week after spinal cord injury, compared with saline only) | BBB point ([8]; ip, 200 mg/kg) | MMP-2 activity (gelatinase activity) [9] | anticonvulsant effects of carbamazepine, phenytoin, and ameltolide [10] | expression of CCL-4 [11] | expression of CCL-3 [12] | expression of MMP-9 [13] | number of macrophages in spinal cord tissues [14] |
| --- | --- | --- | --- | --- | --- | --- | --- | --- | --- | --- | --- | --- | --- | --- | --- | --- |
| C[C@]12N[C@H](Cc3ccccc31)c1ccccc12 [MK-801] | inhibited |  |  |  |  |  |  |  |  |  |  |  |  |  |  |  |
| CNCCC(Oc1ccc(C(F)(F)F)cc1)c1ccccc1 (stereo not shown) [fluoxetine] |  | significantly reduced | not reduced | hardly reduced | significantly reduced | significantly reduced | significantly reduced | approximately 50% | began to increase | 10.2±0.92 | significantly reduced | increased | suppressed | suppressed | significantly reduced | significantly reduced |

— patent publication US20140303256A1 (UNIVERSITY INDUSTRY COOPERATION GROUP OF KYUNG HEE …, priority 2011, published 2014)
